Reference: ChEMBL document CHEMBL6087474, “Discovery of an Efficacious RET PROTAC Degrader with Enhanced Antiproliferative Activity against Resistant Cancer Cells Harboring RET Solvent-Front Mutations” (J Med Chem, 2025)
Calls of active or inactive are those of the source. No cut-off for these calls is given here.

Experiments:
[1] = PROTAC activity at CRBN/KIF5B-RET (unknown origin) expressed in mouse BaF3 cells assessed as induction of RET degradation measured after 6 hrs by Western blot analysis; conditions: Homo sapiens, BaF3, 6 h
[2] = system: BaF3; assay: PROTAC activity at CRBN/KIF5B-RET (unknown origin) expressed in mouse BaF3 cells assessed as induction of RET degradation by measuring maximal efficacy measured after 6 hrs by Western blot analysis relative to control; type: cell-based; conditions: Homo sapiens
[3] = PROTAC activity at CRBN/KIF5B-RET-G810R mutant (unknown origin) expressed in mouse BaF3 cells assessed as induction of RET degradation measured after 6 hrs by Western blot analysis; type: cell-based; conditions: BaF3, 6 h
[4] = system: BaF3; assay: PROTAC activity at CRBN/KIF5B-RET-G810R mutant (unknown origin) expressed in mouse BaF3 cells assessed as induction of RET degradation at 300 nM measured after 6 hrs by Western blot analysis relative to control; type: cell-based; conditions: Homo sapiens
[5] = system: BaF3; assay: Antiproliferative activity against mouse BaF3 cells stably expressing KIF5B-RET-V804L mutant incubated for 72 hrs by CCK-8 assay; type: functional, cell-based; conditions: BaF3, 72 h
[6] = system: BaF3; assay: Antiproliferative activity against mouse BaF3 cells stably expressing CCDC6-RET incubated for 72 hrs by CCK-8 assay; type: functional, cell-based; conditions: BaF3, 72 h
[7] = Effect on RET protein level in mouse BaF3 cells stably expressing wildtype KIF5B-RET assessed as fold change at 100 nM measured after 6 hrs by Western blot analysis (reference value: 1); type: functional
[8] = Effect on Shc protein level in mouse BaF3 cells stably expressing wildtype KIF5B-RET assessed as fold change at 11.1 nM measured after 6 hrs by Western blot analysis; type: functional
[9] = Effect on Shc protein level in mouse BaF3 cells stably expressing wildtype KIF5B-RET assessed as fold change at 300 nM measured after 6 hrs by Western blot analysis; type: functional
[10] = Effect on RET protein level in mouse BaF3 cells stably expressing KIF5B-RET-V804M mutant assessed as fold change at 11.1 nM measured after 6 hrs by Western blot analysis (reference value: 1); type: functional
[11] = Effect on RET protein level in mouse BaF3 cells stably expressing KIF5B-RET-V804M mutant assessed as fold change at 100 nM measured after 6 hrs by Western blot analysis (reference value: 1); type: functional
[12] = Effect on RET protein level in mouse BaF3 cells stably expressing KIF5B-RET-V804M mutant assessed as fold change at 300 nM measured after 6 hrs by Western blot analysis (reference value: 1); type: functional
[13] = Effect on RET protein level in mouse BaF3 cells stably expressing KIF5B-RET-G810C mutant assessed as fold change at 11.1 nM measured after 6 hrs by Western blot analysis (reference value: 1); type: functional
[14] = Effect on RET protein level in mouse BaF3 cells stably expressing KIF5B-RET-G810C mutant assessed as fold change at 33.3 nM measured after 6 hrs by Western blot analysis (reference value: 1); type: functional
[15] = Effect on RET protein level in mouse BaF3 cells stably expressing KIF5B-RET-G810C mutant assessed as fold change at 300 nM measured after 6 hrs by Western blot analysis (reference value: 1); type: functional
[16] = Effect on Shc protein level in mouse BaF3 cells stably expressing KIF5B-RET-G810C mutant assessed as fold change at 11.1 nM measured after 6 hrs by Western blot analysis (reference value: 1); type: functional
[17] = Effect on Shc protein level in mouse BaF3 cells stably expressing KIF5B-RET-G810R mutant assessed as fold change at 300 nM measured after 6 hrs by Western blot analysis (reference value: 1); type: functional
[18] = system: BaF3; assay: Inhibition of RET (unknown origin) phosphorylation in mouse BaF3 cells stably expressing KIF5B-RET-G810R mutant at 333.3 to 3000 nM measured after 6 hrs by Western blot analysis; type: cell-based; conditions: Homo sapiens, dose 333.3-3000 nM
[19] = Induction of apoptosis in mouse BaF3 cells stably expressing wildtype KIF5B-RET fusion protein assessed as late apoptotic cells at 33.3 nM measured after 48 hrs by Annexin V-FITC/7-AAD staining based flow cytometric analysis (reference value: 1.03 %); type: functional
[20] = Induction of apoptosis in mouse BaF3 cells stably expressing wildtype KIF5B-RET fusion protein assessed as necrotic cells at 33.3 nM measured after 48 hrs by Annexin V-FITC/7-AAD staining based flow cytometric analysis (reference value: 2.40 %); type: functional
[21] = Induction of apoptosis in mouse BaF3 cells stably expressing wildtype KIF5B-RET fusion protein assessed as viable cells at 100 nM measured after 48 hrs by Annexin V-FITC/7-AAD staining based flow cytometric analysis (reference value: 86.65 %); type: functional; conditions: read-out: Activity
[22] = Induction of apoptosis in mouse BaF3 cells stably expressing KIF5B-RET-G810C mutant assessed as late apoptotic cells at 33.3 nM measured after 48 hrs by Annexin V-FITC/7-AAD staining based flow cytometric analysis (reference value: 1.96 %); type: functional
[23] = Induction of apoptosis in mouse BaF3 cells stably expressing KIF5B-RET-G810C mutant assessed as early apoptotic cells at 300 nM measured after 48 hrs by Annexin V-FITC/7-AAD staining based flow cytometric analysis (reference value: 8.57 %); type: functional
[24] = Induction of apoptosis in mouse BaF3 cells stably expressing KIF5B-RET-G810C mutant assessed as late apoptotic cells at 900 nM measured after 48 hrs by Annexin V-FITC/7-AAD staining based flow cytometric analysis (reference value: 1.96 %); type: functional
[25] = Induction of apoptosis in mouse BaF3 cells stably expressing KIF5B-RET-G810C mutant assessed as necrotic cells at 900 nM measured after 48 hrs by Annexin V-FITC/7-AAD staining based flow cytometric analysis (reference value: 2.89 %); type: functional
[26] = Cmax in male ICR mouse at 10 mg/kg, ip measured after 24 hrs by LC-MS/MS analysis; type: ADME, organism-based; conditions: in vivo
[27] = Bioavailability in male ICR mouse at 10 mg/kg, ip measured after 24 hrs by LC-MS/MS analysis; type: ADME, organism-based; conditions: in vivo
[28] = system: BaF3; assay: Antitumor activity against mouse BaF3 cells stably expressing KIF5B-RET-G810C mutant implanted in male BALB/c mouse model assessed as tumor growth inhibition at 30 mg/kg, ip administered daily for 14 days relative to control; type: functional; conditions: BaF3, 336 h, time 14 day, read-out: TGI
[29] = system: Kinesin-1 heavy chain/ Tyrosine-protein kinase receptor RET (Homo sapiens), P07949+P33176 [G810C]; assay: In vivo PROTAC activity at CRBN/KIF5B-RET-G810C mutant in male BALB/c mouse model implanted with mouse BaF3 cells stably expressing KIF5B-RET-G810C mutant assessed as induction of RET degradation in tumor at 10 mg/kg, ip measured after 3 days by Western blotting analysis relative to control; type: functional, organism-based; conditions: time 3.0 day

COc1ccc(CN2C3CC2CN(c2ccc(-c4cc(-c5cnn(C6CCN(CCCCCC#Cc7cccc8c7CN(C7CCC(=O)NC7=O)C8=O)CC6)c5)cn5ncc(C#N)c45)cn2)C3)cn1 (centres undefined)
DC50 [1]: 0.0047 µM
Emax [2]: 83%
DC50 [3]: > 0.3 µM
Activity [4]: 43%
IC50 [5]: 0.05 µM
IC50 [6]: 0.01 µM
fold change (FC) [7]: 0.3
fold change (FC) [8]: 1
fold change (FC) [9]: 1
fold change (FC) [10]: 0.7
fold change (FC) [11]: 0.1
fold change (FC) [12]: 0.1
fold change (FC) [13]: 0.7
fold change (FC) [14]: 0.6
fold change (FC) [15]: 0.3
fold change (FC) [16]: 1
fold change (FC) [17]: 0.9
inhibition [18]: Active
Activity [19]: 3.02%
Activity [20]: 1.79%
viability at 0.1 µM [21]: 64.9%
Activity [22]: 1.62%
Activity [23]: 31.81%
Activity [24]: 3.71%
Activity [25]: 1.26%
Cmax [26]: 0.068 µg/mL
bioavailability [27]: 17.3%
inhibition in vivo at 30 mg/kg [28]: 49.2%
Activity [29]: 47%
